Data from the NIST ThermoML archive (doi:10.1021/je034084d).
Numbers after ± are expanded uncertainties.

Conditions: for vapor or sublimation pressure: Liquid; for molar volume: Gas, isochoric method

FC(C(F)(F)F)C(F)(F)F [1,1,1,2,3,3,3-heptafluoropropane]
Conditions	vapor or sublimation pressure [kPa]
235.07 K	35.5 ± 1.1
240.23 K	46.5 ± 1.1
245.31 K	59.9 ± 1.1
250.44 K	76.3 ± 1.1
255.11 K	94.1 ± 1.1
260.28 K	117.5 ± 1.1
265.66 K	146.4 ± 1.1
270.55 K	177.2 ± 1.1
275.23 K	211.1 ± 1.1
280.19 K	252.4 ± 1.1
285.44 K	302.4 ± 1.2
290.14 K	353.3 ± 1.2
295.27 K	416.1 ± 1.2
300.24 K	484.6 ± 1.2
305.29 K	562.6 ± 1.3
310.37 K	650.5 ± 1.3
315.41 K	747.3 ± 1.3
320.07 K	845.9 ± 1.4
325.19 K	965.7 ± 1.4
329.97 K	1088.3 ± 1.5
335.04 K	1230.8 ± 1.6
339.99 K	1383 ± 1.6
345.15 K	1556.8 ± 1.7
350.26 K	1744.7 ± 1.8
355.11 K	1939 ± 1.9
360.18 K	2159.7 ± 2
365.27 K	2401.5 ± 2.1

Conditions	molar volume [m3/mol]
293.37 K, 214.8 kPa	0.0106 ± 5e-06
298.02 K, 297.6 kPa	0.007594 ± 3e-06
298.06 K, 219 kPa	0.0106 ± 5e-06
298.58 K, 387 kPa	0.00567 ± 2e-06
303.22 K, 304.1 kPa	0.007596 ± 3e-06
303.42 K, 223.7 kPa	0.0106 ± 5e-06
303.52 K, 484.7 kPa	0.004479 ± 2e-06
303.65 K, 395.8 kPa	0.005671 ± 2e-06
308.37 K, 228 kPa	0.0106 ± 5e-06
308.57 K, 310.7 kPa	0.007598 ± 3e-06
308.57 K, 562.5 kPa	0.003857 ± 2e-06
308.67 K, 496.4 kPa	0.00448 ± 2e-06
308.69 K, 404.7 kPa	0.005672 ± 2e-06
313.63 K, 507.6 kPa	0.004481 ± 2e-06
313.69 K, 413.2 kPa	0.005673 ± 2e-06
314.14 K, 232.7 kPa	0.01061 ± 5e-06
314.16 K, 317.9 kPa	0.0076 ± 3e-06
314.22 K, 577.9 kPa	0.003858 ± 2e-06
318.62 K, 518.9 kPa	0.004482 ± 2e-06
318.66 K, 421.6 kPa	0.005675 ± 2e-06
319.44 K, 237.1 kPa	0.01061 ± 5e-06
319.6 K, 324.5 kPa	0.007601 ± 3e-06
319.97 K, 593.4 kPa	0.003859 ± 2e-06
323.74 K, 530.4 kPa	0.004483 ± 2e-06
323.82 K, 430.2 kPa	0.005676 ± 2e-06
324.15 K, 241.1 kPa	0.01061 ± 5e-06
324.21 K, 329.9 kPa	0.007603 ± 3e-06
324.39 K, 605.1 kPa	0.003859 ± 2e-06
328.01 K, 244.4 kPa	0.01061 ± 5e-06
328.19 K, 334.6 kPa	0.007604 ± 3e-06
328.2 K, 614.9 kPa	0.00386 ± 2e-06
328.46 K, 540.6 kPa	0.004484 ± 2e-06
328.9 K, 438.8 kPa	0.005677 ± 2e-06
333.39 K, 248.8 kPa	0.01062 ± 5e-06
333.4 K, 551.4 kPa	0.004485 ± 2e-06
333.62 K, 341.1 kPa	0.007606 ± 3e-06
333.92 K, 629.9 kPa	0.003861 ± 2e-06
334.02 K, 447.3 kPa	0.005679 ± 2e-06
338.69 K, 642 kPa	0.003862 ± 2e-06
338.92 K, 253.5 kPa	0.01062 ± 5e-06
338.96 K, 347.5 kPa	0.007608 ± 3e-06
338.96 K, 563.3 kPa	0.004486 ± 2e-06
339.15 K, 455.7 kPa	0.00568 ± 2e-06
343.8 K, 257.7 kPa	0.01062 ± 5e-06
343.94 K, 655.2 kPa	0.003863 ± 2e-06
343.99 K, 353.6 kPa	0.00761 ± 3e-06
344.11 K, 574.3 kPa	0.004487 ± 2e-06
344.27 K, 464.1 kPa	0.005681 ± 2e-06
348.97 K, 359.5 kPa	0.007611 ± 3e-06
349.04 K, 261.8 kPa	0.01062 ± 5e-06
349.14 K, 668.4 kPa	0.003864 ± 2e-06
349.17 K, 585 kPa	0.004488 ± 2e-06
349.21 K, 472.1 kPa	0.005682 ± 2e-06
353.32 K, 364.5 kPa	0.007613 ± 3e-06
353.39 K, 679.1 kPa	0.003864 ± 2e-06
353.64 K, 265.6 kPa	0.01063 ± 5e-06
354.39 K, 596 kPa	0.004489 ± 2e-06
354.73 K, 481 kPa	0.005684 ± 2e-06
